How the values were obtained:
Adult female BALB/c mice = assay type: in vivo, mouse; details: i.p. twice
Method: Adult female BALB/c mice (20 g average body weight, Harlan, Israel) were sensitized on day 0 and day 1 by application of 30 μl of 0.15% Dinitrofluorobenzene (DNFB) diluted in acetone on the shaved skin of the abdomen. On day 6 the animals were challenged by application of 10 μl of DNFB in acetone on one ear. The contralateral ear was not challenged but received the application of 10 μl acetone. Test compounds were administered at increasing doses from 0 to 15 mg/kg i.p. twice, the first injection was immediately after DNFB challenge (on day 6) and the second injection was 16 hours post challenge (on day 7). Each treatment group comprised at least 7 animals. Dexamethasone (DXM) was used as positive control. Ear thickness was determined (in 0.01 mm units) 24 hours after challenge (and 6 hours after second treatment on day 7) using a dial thickness gauge (Mitutoyo, Japan).
Results are analyzed as ear thickness of DNFB treated over DNFB untreated contralateral ear. The impact of the test compound was further assessed by comparing its mean impact on the animals of the treatment group to the response generated by the appropriate vehicle only.

[1] = test system: IL-1β secretion from activated RAW 264.7 macrophages; assay: Inhibition of IL-1β in LPS activated macrophages (ELISA); assay type: cell-based; details: Mus musculus, RAW264.7, 24 h, read-out: inhibition of IL-1β secretion
Method: The technique used to quantify the amount of a given protein in a liquid sample, either tissue culture supernatant or body fluid, is based on Enzyme Linked ImmunoSorbent Assay (ELISA) methodology. Either commercially available or established in house, the assay is based on the capture of the protein of interest by specific antibodies bound to the bottom of an ELISA plate well. […] Again the unbound material is washed away, the samples are then incubated with the appropriate substrate yielding a calorimetric reaction. The reaction is stopped and reading is performed in a spectrophotometer at the appropriate wavelength. Samples are tested at least in duplicate and the appropriate standard curve, consisting of serial dilutions of the recombinant target protein, is incorporated on each plate. Concentration of the protein in the sample is calculated from the standard curve.
RAW 264.7 macrophages, a mouse cell line (ATCC # TIB-71), were grown in Dulbecco's modified Eagle's medium (DMEM) with 4 mM L-glutamine adjusted to contain 1.5 g/L sodium bicarbonate, 4.5 g/L glucose, and 10% heat inactivated fetal bovine serum. Cells were grown in tissue culture flasks and seeded at appropriate density into 24 wells tissue culture plates. 0.5×10^6 Raw cells in one milliliter were stimulated with 2 μg/ml Lipopolysaccharide E. coli 055:B5 (DIFCO Laboratories). The mouse macrophages were pre-treated for one hour with controls or 10 μM of bicyclic CB2 ligands and later on activated with LPS. Dexamethasone was used as a positive control at 50 nM. Supernatant was collected 4 hours (for PGE2) and 24 hours (for IL-1β and TNF-α) after activation, and the levels of the inflammatory agent under study were determined by ELISA, as previously described. Inhibition was calculated versus vehicle treated cells.

human CB1 receptor = molecular target: T1, human CB1 receptor (Homo sapiens, UniProt P21554); assay: Adenylylcyclase assay: forskolin-activated cAMP in CB1 transfected HEK-293 cells; assay type: cell-based
T1 construct: purchased Perkin Elmer/NEN; host or cells: HEK-293 cells, stably transfected (membranes)
T1 sequence (P21554 whole entry): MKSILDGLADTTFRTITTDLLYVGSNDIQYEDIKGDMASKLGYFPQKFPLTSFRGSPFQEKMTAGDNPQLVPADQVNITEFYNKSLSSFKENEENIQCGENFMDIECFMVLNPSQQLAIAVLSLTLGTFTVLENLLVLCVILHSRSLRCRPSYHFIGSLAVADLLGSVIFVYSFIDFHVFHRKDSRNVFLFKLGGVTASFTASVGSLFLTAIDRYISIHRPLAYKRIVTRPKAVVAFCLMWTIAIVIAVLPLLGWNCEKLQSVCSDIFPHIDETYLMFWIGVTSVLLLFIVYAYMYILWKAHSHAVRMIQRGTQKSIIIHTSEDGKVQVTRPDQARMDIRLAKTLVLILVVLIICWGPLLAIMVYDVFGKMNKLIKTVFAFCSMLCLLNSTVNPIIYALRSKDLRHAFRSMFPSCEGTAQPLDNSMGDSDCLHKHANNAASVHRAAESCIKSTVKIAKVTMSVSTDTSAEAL
Method: Cannabinoids and derivatives bind to G-protein-coupled CB1 and CB2 receptors and exert their activity via the inhibition of adenylylcyclase activity. An adenylylcyclase assay forms a basis for the functional analysis of the compounds by determining their capacity to inhibit or promote forskolin-activated cAMP production. The assay is carried out according to Chin et al. (Chin, C. N. et al., J. Neurochem. 70: 366-73, 1998). Briefly, HEK-293 human kidney cells (ATCC#CRL-1573) stably transfected with either the human CB1 or CB2 receptor (cDNA) were grown in DMEM supplemented with 10% fetal calf serum, 1% Penicillin-Streptomycin and 2 mM L-glutamine. Cells were seeded in 24 wells plate at 5×10^4 cells/well and incubated for 48 hours. Medium was then removed and the adherent cells were washed with PBS. Two hundred μl of serum free medium supplemented with 0.2 mM Ro 20-1724, 0.25% BSA, and 20 mM HEPES was then added to each well. The cells were then activated with 1 μM forskolin in presence of the bicyclic test compounds in concentrations ranging from 10 pM up to 1 μM. The activated cells were then incubated at 37° C. for 20 minutes and the reaction terminated with 1.2 M HCl to a final concentration of 0.1 M. Cells were lyzed by freeze and thaw and the lysate was neutralized with 2 M HEPES, pH 7.5. cAMP was measured in 50 μl aliquots using the [^3H]-cAMP assay system (Amersham).
This experiment was first performed on CB2 receptor transfected cells.

ICR male mice = assay: Development of tolerance on repeated administration, tail flick model; details: 10 mg/kg twice daily i.p.
Method: ICR male mice (20-30 g average body weight, Harlan, Israel) were injected i.p. at the volume dose of 5 ml/kg. Each treatment group contained at least 6 animals. Morphine HCl was used as positive control at the final dose of 5 mg/kg. Its vehicle, saline, was also included as control. The test compounds were dissolved in CREMOPHOR EL®:ethanol and diluted 1:20 in saline prior to injection, this second type of vehicle was also included as negative control. The final dose injected varied from 0.1 to 10 mg/kg. At predetermined time points after treatment injection, the animals were placed in the tail flick system (Socrel, model DS 20). Animals were gently held while their tails were located above the photoelectric cell. The tails were then illuminated (21V) at 2 cm from the distal tip and the latency time, measured in seconds, was recorded in duplicates. At the end of the study, the animals were euthanized by i.p. injection of 100 mg/kg sodium pentobarbitone.
Tolerance was assessed in the tail flick model above described. Briefly, the test compounds were administered twice daily i.p. for up to 10 days to groups of 10 animals each. The noxious pain threshold was measured as previously described in example 13 thirty minutes after the first drug administration on days 1, 4, 8 and 10. Results are expressed as mean latency time till the animal flicked its tail±SE. The differences between the latency times or the % of animals showing analgesia among various treatment groups was analyzed by analysis of variance (ANOVA) followed by post-hoc Tukey's test (for latency) or Fisher's exact test (for % animals). A value of p<0.05 is considered to be statistically significant.

| Compound | calculated IC50 reduction in ear thickness (Adult female BALB/c mice) [mg/kg] | maximal inhibition (reduction in ear thickness) (Adult female BALB/c mice; doses 0 to 15 mg/kg, 24 hours after challenge) [%] | inhibition at 10 µM [1] [%] | IC50 (human CB1 receptor) [nM] | inhibition at 1 µM (human CB1 receptor; HEK293, CB1 transfected HEK-293, 1 μM forskolin, read-out: maximal inhibition at 1 μM) [%] | development of tolerance (ICR male mice; 20 administrations) | % of animals showing increased analgesia (ICR male mice; day 10) [%] | latency time (ICR male mice; day 10) [s] | % of animals showing increased analgesia (ICR male mice; day one) [%] | latency time (ICR male mice; day one) [s] |
| --- | --- | --- | --- | --- | --- | --- | --- | --- | --- | --- |
| CCCCCCC(C)(C)c1cc(OC)c(C2C=C(CO)C3CC2C3(C)C)c(OC)c1 (single isomer, unassigned; (+)) [HU-308, (+) {4-[4-(1,1-dimethylheptyl)-2,6-dimethoxy-phenyl]-6,6-dimethyl-bicyclo[3.1.1]hept-2-en-2-yl}-methanol, reference compound] | 4.8 | ~60 |  |  |  |  |  |  |  |  |
| CCCCCCC(C)(C)c1cc(O)c(C2CC(=O)C3CC2C3(C)C)c(O)c1 (single isomer, unassigned; (-)) [Compound A, (−)-4-[4-(1,1-Dimethyl-heptyl)2,6-dihydroxy-phenyl]-6,6-dimethyl-bicyclo[3.1.1)heptan-2-one] |  |  | 76 | 10.3 | 69 | did not cause the development of tolerance | 80 | 7 | 88 | 8.1 |
